Experimental findings from patent US20020103228A1, “Composition and method for use of pyridinium derivatives in cosmetic and therapeutic applications” (TORRENT PHARMACEUTICALS LTD., priority 1999, published 2002) are described below.

The nature of this assay: Free radical scavenging activity on ABTS radical cation. It is filed as biochemical. The method, then:
This method measures the relative ability of free radical scavenging substances to scavenge the ABTS^.+ i.e. 2,2-Azino-bis-(3-ethyl benzo thiazoline-6-sulfonate) radical cation as compared to a standard amount of standard or free radical scavengers antioxidants. Incubation of ABTS with Peroxidase (metmyoglobin) and hydrogen peroxide results in the production of radical cation ABTS^.+. This species is blue-green in colour and can be detected at 730 nm. Antioxidants or free radical scavengers in the added sample that causes suppression of the color to a degree that is proportional to their concentration.
Preparation of Buffer Solutions
A. Phosphate Citrate Buffer (pH 5.0). 48.5 ml of 0.1M citric acid with sufficient 0.2M disodium hydrogen phosphate to produce 100 ml.
B. Phosphate Buffer Saline (PBS): Dissolve 40.0 g of NaCl, 1.0 g of KCl, 1.0 g of KH2PO4 and 3.05 g of Na2HPO4 in 1 liter milli-Q water. Dilute 200 ml of above solution to 1 liter with milli-Q water (pH 7.4-7.6).
C. 3 μM stock solution of Peroxidase was prepared in phosphate buffer saline pH 7.4(PBS).
D. 1.08 mM stock solution of Hydrogen peroxide was prepared in phosphate buffer saline pH 7.4 (PBS).
Preparation of ABTS Stock Solution
1 tablet (10 mg) was dissolved in phosphate citrate buffer (pH 5.0).
Preparation of ABTS Working Solution
5.0 ml of ABTS stock solution was diluted with PBS to 20 ml.
Preparation of Horse Radish Peroxidase Stock Solution
320 μg of the enzyme was dissolved in 2.5 ml of PBS.
Preparation of Hydrogen Peroxide (1.08 mM) Solution
12 μl of Hydrogen Peroxide (30% w/v) was diluted to 100 ml with PBS. […]
Preparation of ABTS Radical Stock Solution
To 18 ml of ABTS stock solution, 100 μl of Horseradish Peroxidase stock solution was added.
As soon as 1.5 ml of hydrogen peroxide solution was added to the above solution, blue-green colour of the ABTS radicals appeared. This solution was incubated at 30° C. for 30 min.
Preparation of Control Solution
980 μl of ABTS radical stock solution was added to an eppendorf tube. To it was added 100 μl of various PBS solution.
Preparation of test Solution
980 μl of ABTS radical stock solutions were added to different eppendorf tubes. To it were added 100 μl of various concentrations of drug solution.
Measurement of Absorbance (O.D)
The absorbance of control and test samples was recorded immediately at 730 nm taking PBS as blank.
Calculation: The percent antioxidant activity was calculated according to the formula. % Antioxidant activity=[O.D of test sample/O.D of control*100]−100.

Regarding `CCCCNC(=O)c1ccc[n+](CC(=O)c2ccc(Cl)cc2Cl)c1.[Br-]` [Compound 97, 1-(2-(2,4-Dichlorophenyl)-2-oxoethyl)-3-(n-butylamino-carbonyl)pyridinium bromide], the “Relative Free Radical Scavenging Activity (%) on ABTS” value runs as follows: (11.5 μM) 16.5%; (23.0 μM) 27%; (46.0 μM) 37.8%; (92.5 μM) 44.5%; (925 μM) 97.8%.

In the case of `O=C(CCC1CCCCC1)NNC(=O)c1ccc[n+](CC(=O)c2cccs2)c1.[Br-]` [Compound 34, 1-(2-thien-2′-yl-2-oxoethyl)-3-((2-(1-oxo-3-cyclohexyl)-ethyl)-hydrazinocarbonyl)-pyridinium bromide], the “Relative Free Radical Scavenging Activity (%) on ABTS” value is, setting by setting: (11.5 μM) 50.3%; (23.0 μM) 53.8%; (46.0 μM) 65.4%; (92.5 μM) 80.4%; (925 μM) 100%.

Consider `NC(=O)c1cccnc1` [Niacinamide, reference compound], for which the “Relative Free Radical Scavenging Activity (%) on ABTS” value is, setting by setting: (11.5 μM) 0.0%; (23.0 μM) 2.2%; (46.0 μM) 3.8%; (92.5 μM) 3.8%; (925 μM) 9.2%.

Regarding `Cc1ccc(S(=O)(=O)NNC(=O)c2ccc[n+](CC(=O)Nc3ccccc3)c2)cc1.[Cl-]` [Compound 27, 1-(2-phenylamino-2-oxoethyl)-3-((4-methylphenyl)sulfonyl hydrazinocarbonyl)pyridinium chloride], the “Relative Free Radical Scavenging Activity (%) on ABTS” value is, setting by setting: (11.5 μM) 43.9%; (23.0 μM) 55.5%; (46.0 μM) 75.3%; (92.5 μM) 99.6%; (925 μM) 100%.

In the case of `O=C(NCCOC(=O)c1ccccc1)c1ccc[n+](CC(=O)c2ccc(Cl)cc2Cl)c1.[Br-]` [Compound 8, 1-(2-(2′,4′-dichlorophenyl)-2-oxoethyl)-3-(2-(benzoyloxy)ethylamino-carbonyl)pyridinium bromide], the “Relative Free Radical Scavenging Activity (%) on ABTS” value reads like this: (11.5 μM) 40.8%; (23.0 μM) 53.7%; (46.0 μM) 72.6%; (92.5 μM) 81.2%; (925 μM) 100%.

Turning to `O=C=Nc1ccc[n+](CC(=O)c2ccc(Cl)cc2Cl)c1.[Br-]` [Compound 82, 3-Carbonylamino-1-(2-(2,4-dichlorophenyl)-2-oxoethyl)-pyridinium bromide], the “Relative Free Radical Scavenging Activity (%) on ABTS” value by setting is: (11.5 μM) 26.0%; (23.0 μM) 44.3%; (46.0 μM) 62.7%; (92.5 μM) 75.5%; (925 μM) 100%.

For `O=C(C[n+]1cccc(C(=O)c2ccccc2)c1)c1ccccc1.[Br-]` [Compound 98, 1-(2-Phenyl-2-oxoethyl)-3-(1-phenyl-1-oxomethyl)pyridinium bromide], the “Relative Free Radical Scavenging Activity (%) on ABTS” value (11.5 μM) was determined as 7.1%; the “Relative Free Radical Scavenging Activity (%) on ABTS” value (23.0 μM) turned out to be 26.9%; the “Relative Free Radical Scavenging Activity (%) on ABTS” value (46.0 μM) worked out at 51.1%; the “Relative Free Radical Scavenging Activity (%) on ABTS” value (92.5 μM) turned out to be 78.6%; the “Relative Free Radical Scavenging Activity (%) on ABTS” value (925 μM) came out at 99.1%.
